Data reported in patent publication US11369648B2 (priority 2018, dated 2022).
Entries after “also recorded” stand apart in the source; their conditions may differ.

Columns and labels:
[1] = test system: antiviral protein MxA; type: in vivo, ICR female mice; settings: qPCR, GAPDH internal reference, 2^-ΔΔt, times that of the model group
[2] = test system: influenza virus; assay: Effect on body weight of influenza mice; type: in vivo, ICR female mice; settings: fourth day after challenge, bacteria 10^9 CFU intragastrically daily from two weeks before challenge, ribavirin intraperitoneally from second day
[3] = test system: influenza virus; assay: Effect on blood indexes (neutrophils, lymphocytes) of influenza mice; parameters: species or system ICR female mice; settings: mouse, in vivo
[4] = test system: influenza virus; parameters: species or system ICR female mice; settings: mouse, in vivo
[5] = test system: influenza virus; assay: Effect on viral load in lungs of influenza mice (qPCR); type: in vivo, ICR female mice

In the case of `NC(=O)c1ncn([C@@H]2O[C@H](CO)[C@@H](O)[C@H]2O)n1` [Treatment, ribavirin], the “expression quantity of MxA in the lungs, relative to the model group (Model)” value [1] is reported as 2.62 times, the “body weight decrease compared with the control group (Control)” value [2] is reported as “about 5%” and the “lymphocytes, change compared with the blank control group (Control)” value [3] is reported as “without significant differences”. The “neutrophils, change compared with the blank control group (Control)” value [3] was “without significant differences”, the “lung histopathology (inflammation, infiltration of inflammatory cells)” value [4] was “mild infiltration of inflammatory cells; also recorded: relatively mild inflammation; also recorded: some moderate and mild inflammation” and the “reduction in viral load in the lungs (significance versus model group)” value ([5]; mouse, in vivo) was “has significance”. For the same compound, the “viral load in the lungs, relative to the model group” value ([5]; right lung, fifth day after challenge, qPCR, GAPDH internal reference, 2^-ΔΔt, % of that of the model group) was 38.03%.
